Source: patent publication US10907214B2, “Methods for predicting drug responsiveness in cancer patients” (Oncology Venture ApS, priority 2016, dated 2021)

Test system: patients having breast cancer
Test: Clinical trial 2: retrospective analysis, breast cancer patients treated with cisplatin, stratified by biomarkers
Assay type: in vivo, human
Conditions: Trial 2, breast cancer, neoadj, N=24
Description: Table 5 below summarizes the results of these studies.

N.N.[Cl][Pt][Cl] [Cisplatin, cisplatin]
overall response rate (ORR) (patients predicted in bottom 10% of responsiveness): ORR 50% | overall response rate (ORR) (patients predicted in top 10% of responsiveness): ORR 100%
